The source of these data is PMC9898036, “VIP152 is a selective CDK9 inhibitor with pre-clinical in vitro and in vivo efficacy in chronic lymphocytic leukemia” (Leukemia, 2022).

Holding throughout (format): binding
In one test the target is Muscarinic M3 (Homo sapiens, UniProt P20309). Briefly: Eurofins Diversity Panel. To be noted: hum, Conc. 10 μM.
The next test concerns the target ERK3 (Homo sapiens, UniProt Q16659). Kind of test: KINOMEscan: ERK3. To be noted: 1000 nM, read-out: Percent Control.
The next test addresses DAPK3 (Homo sapiens, UniProt O43293). Briefly: KINOMEscan: DAPK3. The following applies: 1000 nM, read-out: Percent Control.
The target in the next test is KIT(V559D) (Homo sapiens, UniProt P10721, V559D). Briefly: KINOMEscan: KIT(V559D). To be noted: 1000 nM, read-out: Percent Control.
The target in another test is SGK2 (Homo sapiens, UniProt Q9HBY8). Kind of test: KINOMEscan: SGK2. To be noted: 100 nM, read-out: Percent Control.
Another test deals with IKK-epsilon (Homo sapiens, UniProt Q14164). Briefly: KINOMEscan: IKK-epsilon. The following applies: 1000 nM, read-out: Percent Control.
The next test addresses TRPM6 (Homo sapiens, UniProt Q9BX84). Kind of test: KINOMEscan: TRPM6. To be noted: 100 nM, read-out: Percent Control.
The target in a further test is FGFR3 (Homo sapiens, UniProt P22607). Kind of test: KINOMEscan: FGFR3. To be noted: 1000 nM, read-out: Percent Control.
For a further test, the target named is ERK5 (Homo sapiens, UniProt Q13164). Kind of test: KINOMEscan: ERK5. The following applies: 1000 nM, read-out: Percent Control.
The target in a further test is DDR2 (Homo sapiens, UniProt Q16832). Kind of test: KINOMEscan: DDR2. The following applies: 1000 nM, read-out: Percent Control.
Chain of DDR2 (Q16832 22-855): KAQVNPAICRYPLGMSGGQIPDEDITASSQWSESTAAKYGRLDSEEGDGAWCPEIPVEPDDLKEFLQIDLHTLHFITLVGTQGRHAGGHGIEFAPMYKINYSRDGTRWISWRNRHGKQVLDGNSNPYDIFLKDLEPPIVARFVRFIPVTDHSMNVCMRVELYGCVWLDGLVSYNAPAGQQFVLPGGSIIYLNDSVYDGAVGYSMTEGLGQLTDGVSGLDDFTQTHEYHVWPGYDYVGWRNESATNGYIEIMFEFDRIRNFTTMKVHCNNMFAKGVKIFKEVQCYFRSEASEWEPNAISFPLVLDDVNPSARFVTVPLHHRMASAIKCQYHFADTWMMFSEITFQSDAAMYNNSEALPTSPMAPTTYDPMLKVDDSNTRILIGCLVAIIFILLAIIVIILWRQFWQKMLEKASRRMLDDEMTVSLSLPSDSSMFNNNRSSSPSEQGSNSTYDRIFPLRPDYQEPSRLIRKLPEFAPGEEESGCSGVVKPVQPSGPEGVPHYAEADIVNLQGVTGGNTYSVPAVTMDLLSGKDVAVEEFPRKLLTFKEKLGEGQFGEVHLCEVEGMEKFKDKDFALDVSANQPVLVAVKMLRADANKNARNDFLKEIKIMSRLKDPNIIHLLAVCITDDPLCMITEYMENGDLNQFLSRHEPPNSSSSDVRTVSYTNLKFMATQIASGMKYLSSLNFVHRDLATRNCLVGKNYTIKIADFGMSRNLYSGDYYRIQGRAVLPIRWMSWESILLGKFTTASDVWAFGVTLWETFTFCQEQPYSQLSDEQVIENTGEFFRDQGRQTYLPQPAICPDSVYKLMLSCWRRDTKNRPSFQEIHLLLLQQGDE

Chain of FGFR3 (P22607 23-806): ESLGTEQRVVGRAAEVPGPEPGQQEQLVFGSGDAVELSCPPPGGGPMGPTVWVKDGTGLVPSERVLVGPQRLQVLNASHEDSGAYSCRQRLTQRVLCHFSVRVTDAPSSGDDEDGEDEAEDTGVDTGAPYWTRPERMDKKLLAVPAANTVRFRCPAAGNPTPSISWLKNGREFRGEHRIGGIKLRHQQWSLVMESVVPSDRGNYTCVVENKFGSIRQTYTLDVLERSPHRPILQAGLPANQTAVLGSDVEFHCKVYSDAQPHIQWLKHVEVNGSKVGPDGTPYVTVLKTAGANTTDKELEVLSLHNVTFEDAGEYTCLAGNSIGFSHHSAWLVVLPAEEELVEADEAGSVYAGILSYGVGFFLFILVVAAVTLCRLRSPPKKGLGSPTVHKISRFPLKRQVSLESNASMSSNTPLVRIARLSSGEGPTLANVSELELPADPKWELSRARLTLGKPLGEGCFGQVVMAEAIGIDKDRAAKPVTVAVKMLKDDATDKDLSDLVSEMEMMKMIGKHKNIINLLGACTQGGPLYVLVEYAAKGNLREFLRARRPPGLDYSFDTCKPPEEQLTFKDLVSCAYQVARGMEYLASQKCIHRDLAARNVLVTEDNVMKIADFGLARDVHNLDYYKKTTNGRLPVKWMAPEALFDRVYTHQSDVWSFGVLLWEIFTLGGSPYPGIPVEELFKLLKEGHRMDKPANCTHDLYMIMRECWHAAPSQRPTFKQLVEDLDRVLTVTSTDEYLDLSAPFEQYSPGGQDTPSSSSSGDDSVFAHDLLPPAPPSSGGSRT
Chain of ERK5 (Q13164 whole entry): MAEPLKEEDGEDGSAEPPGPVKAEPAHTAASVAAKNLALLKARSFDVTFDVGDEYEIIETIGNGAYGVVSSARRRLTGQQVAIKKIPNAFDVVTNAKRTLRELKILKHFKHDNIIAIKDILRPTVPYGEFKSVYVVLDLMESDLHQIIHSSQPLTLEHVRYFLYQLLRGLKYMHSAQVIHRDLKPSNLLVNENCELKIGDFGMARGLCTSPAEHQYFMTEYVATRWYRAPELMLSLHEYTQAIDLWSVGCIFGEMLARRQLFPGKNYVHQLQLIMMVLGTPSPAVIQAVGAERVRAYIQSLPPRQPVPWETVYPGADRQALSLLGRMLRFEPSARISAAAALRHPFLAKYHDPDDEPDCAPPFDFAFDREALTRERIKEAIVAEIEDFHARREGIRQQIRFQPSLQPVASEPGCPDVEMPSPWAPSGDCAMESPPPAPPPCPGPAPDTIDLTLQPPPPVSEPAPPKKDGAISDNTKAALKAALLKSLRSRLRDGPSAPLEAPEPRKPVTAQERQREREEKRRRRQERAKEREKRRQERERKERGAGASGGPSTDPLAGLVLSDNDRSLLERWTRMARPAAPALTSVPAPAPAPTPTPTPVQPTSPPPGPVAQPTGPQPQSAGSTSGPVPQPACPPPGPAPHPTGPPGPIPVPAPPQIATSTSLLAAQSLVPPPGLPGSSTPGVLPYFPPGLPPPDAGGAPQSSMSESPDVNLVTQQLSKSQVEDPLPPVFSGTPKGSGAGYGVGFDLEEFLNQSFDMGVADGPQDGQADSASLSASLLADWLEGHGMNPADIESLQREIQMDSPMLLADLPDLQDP
Chain of DAPK3 (O43293 whole entry): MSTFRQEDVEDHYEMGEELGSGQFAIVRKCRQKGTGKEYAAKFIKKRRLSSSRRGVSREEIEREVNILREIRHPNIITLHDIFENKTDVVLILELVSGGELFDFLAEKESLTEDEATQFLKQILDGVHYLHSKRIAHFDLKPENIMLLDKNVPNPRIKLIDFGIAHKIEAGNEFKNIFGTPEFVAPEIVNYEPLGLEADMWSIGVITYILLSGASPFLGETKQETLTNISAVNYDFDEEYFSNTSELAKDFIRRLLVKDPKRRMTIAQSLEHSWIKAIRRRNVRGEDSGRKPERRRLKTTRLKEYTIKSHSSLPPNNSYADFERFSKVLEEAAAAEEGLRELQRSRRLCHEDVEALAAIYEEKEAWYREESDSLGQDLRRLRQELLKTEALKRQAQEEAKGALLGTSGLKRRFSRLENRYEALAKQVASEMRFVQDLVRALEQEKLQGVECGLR
Chain of IKK-epsilon (Q14164 whole entry): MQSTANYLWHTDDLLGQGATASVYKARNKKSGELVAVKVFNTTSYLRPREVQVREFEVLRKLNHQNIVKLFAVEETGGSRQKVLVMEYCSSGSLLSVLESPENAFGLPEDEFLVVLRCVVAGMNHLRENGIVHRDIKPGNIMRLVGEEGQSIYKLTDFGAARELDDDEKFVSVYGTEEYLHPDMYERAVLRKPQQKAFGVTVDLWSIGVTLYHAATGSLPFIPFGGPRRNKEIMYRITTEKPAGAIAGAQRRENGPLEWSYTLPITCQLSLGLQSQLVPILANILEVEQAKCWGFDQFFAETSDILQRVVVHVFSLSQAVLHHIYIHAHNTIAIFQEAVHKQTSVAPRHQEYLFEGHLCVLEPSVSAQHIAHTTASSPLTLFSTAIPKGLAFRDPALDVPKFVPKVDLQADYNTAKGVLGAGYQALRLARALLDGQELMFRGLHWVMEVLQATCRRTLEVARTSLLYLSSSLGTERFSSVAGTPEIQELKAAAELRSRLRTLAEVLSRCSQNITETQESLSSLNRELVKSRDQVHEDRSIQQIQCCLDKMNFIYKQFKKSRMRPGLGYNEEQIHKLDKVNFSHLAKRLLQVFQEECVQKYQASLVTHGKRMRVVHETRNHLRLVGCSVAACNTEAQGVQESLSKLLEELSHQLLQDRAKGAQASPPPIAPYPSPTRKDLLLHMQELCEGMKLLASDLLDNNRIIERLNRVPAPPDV
Chain of SGK2 (Q9HBY8 whole entry): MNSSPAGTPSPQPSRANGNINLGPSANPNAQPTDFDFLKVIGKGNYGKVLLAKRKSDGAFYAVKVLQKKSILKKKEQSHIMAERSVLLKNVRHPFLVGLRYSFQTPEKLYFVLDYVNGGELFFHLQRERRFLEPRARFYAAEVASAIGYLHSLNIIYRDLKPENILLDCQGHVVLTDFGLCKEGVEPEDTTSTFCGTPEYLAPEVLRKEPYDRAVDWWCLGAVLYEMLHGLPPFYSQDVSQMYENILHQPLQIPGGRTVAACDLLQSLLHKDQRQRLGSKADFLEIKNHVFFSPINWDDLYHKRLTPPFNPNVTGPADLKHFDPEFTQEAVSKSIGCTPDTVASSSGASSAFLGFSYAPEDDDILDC
Chain of KIT(V559D) (P10721 26-976 V559D): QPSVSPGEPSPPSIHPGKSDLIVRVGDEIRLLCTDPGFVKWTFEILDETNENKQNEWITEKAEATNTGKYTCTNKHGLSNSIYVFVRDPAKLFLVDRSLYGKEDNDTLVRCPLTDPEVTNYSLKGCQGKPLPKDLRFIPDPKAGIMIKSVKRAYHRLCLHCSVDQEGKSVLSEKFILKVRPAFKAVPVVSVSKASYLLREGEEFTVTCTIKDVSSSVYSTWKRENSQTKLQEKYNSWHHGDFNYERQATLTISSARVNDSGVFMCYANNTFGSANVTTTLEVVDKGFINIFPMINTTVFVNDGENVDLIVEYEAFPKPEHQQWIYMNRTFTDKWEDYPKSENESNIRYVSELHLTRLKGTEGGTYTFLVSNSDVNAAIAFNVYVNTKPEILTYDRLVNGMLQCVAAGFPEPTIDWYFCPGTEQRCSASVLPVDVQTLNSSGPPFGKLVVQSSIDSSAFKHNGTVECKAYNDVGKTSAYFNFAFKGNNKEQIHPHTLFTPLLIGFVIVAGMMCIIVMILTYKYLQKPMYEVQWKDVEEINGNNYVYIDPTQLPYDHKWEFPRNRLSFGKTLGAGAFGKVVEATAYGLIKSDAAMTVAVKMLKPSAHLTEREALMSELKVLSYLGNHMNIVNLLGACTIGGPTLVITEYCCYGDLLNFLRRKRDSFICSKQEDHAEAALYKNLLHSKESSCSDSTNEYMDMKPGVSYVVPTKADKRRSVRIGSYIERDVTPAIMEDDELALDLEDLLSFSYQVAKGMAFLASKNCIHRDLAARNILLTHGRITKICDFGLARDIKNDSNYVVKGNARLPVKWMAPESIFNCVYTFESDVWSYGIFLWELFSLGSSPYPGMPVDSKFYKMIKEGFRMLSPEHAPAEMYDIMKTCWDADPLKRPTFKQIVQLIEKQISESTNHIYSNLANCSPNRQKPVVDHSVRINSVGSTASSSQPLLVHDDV

On to `COc1cc(F)ccc1-c1cc(Nc2cc(CS(C)(=N)=O)ccn2)ncc1F` (stereo not shown) [VIP152], for which testing at 10 µM against Muscarinic M3 gave an inhibition of 3%. Moreover, the remaining binding at 1 µM at ERK3 was 84%; at DAPK3, 91%; on KIT(V559D), 82%; at IKK-epsilon, 51%; at FGFR3 it was 75%; on ERK5 it was 95%. The remaining binding at 1 µM on DDR2 was found to be 27%. For the same compound, the remaining binding at 0.1 µM at SGK2 and on TRPM6 was 100% each time.
